Patent publication US5607960A, “Indole derivatives as 5-HT1-like agonists for use in migraine” (Pfizer Inc., priority 1993, dated 1997)

Key:
"5-HT1 -like" receptor [1] = target: T1, "5-HT1 -like" receptor (Canis lupus familiaris, UniProt P79250); experiment: contraction of dog isolated saphenous vein strip (in vitro "5-HT1 -like" receptor agonist activity); type: cell-based; conditions: for EC50: concentration which causes 50% of the maximum contraction effected by the compound; for RELATIVE POTENCY EC50 (compound) / EC50 (5-HT): ratio to 5-HT
T1 construct: dog isolated saphenous vein strip; from tissue; host or cells: dog isolated saphenous vein strip
Excerpt: EC50 represents the concentration of compound which causes 50% of the maximum contraction effected by it.

[2] = acute toxicity in conscious dog, i.v.; type: in vivo; conditions: doses of up to 1 mg/Kg i.v.
[3] = acute toxicity in conscious mouse, i.v.; type: in vivo; conditions: doses of up to 10 mg/Kg i.v.
"5-HT1 -like" receptor [4] = target: T1, "5-HT1 -like" receptor; conditions: cited from earlier work
carotid vascular bed = conditions: anaesthetized dog; cited from earlier work

T1 sequence (P79250 whole entry): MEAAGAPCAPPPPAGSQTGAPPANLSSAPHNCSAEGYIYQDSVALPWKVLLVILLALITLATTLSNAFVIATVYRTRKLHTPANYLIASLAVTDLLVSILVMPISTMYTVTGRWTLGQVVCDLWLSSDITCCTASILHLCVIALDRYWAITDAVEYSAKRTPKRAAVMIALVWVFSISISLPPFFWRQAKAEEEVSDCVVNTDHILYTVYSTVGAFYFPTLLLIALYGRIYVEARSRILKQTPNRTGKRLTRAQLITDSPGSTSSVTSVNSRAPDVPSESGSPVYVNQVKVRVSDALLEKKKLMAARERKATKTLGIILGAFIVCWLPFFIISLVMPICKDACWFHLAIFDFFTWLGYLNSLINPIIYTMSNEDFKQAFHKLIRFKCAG

Row | SMILES | EC50 ("5-HT1 -like" receptor [1]) | RELATIVE POTENCY EC50 (compound) / EC50 (5-HT) ("5-HT1 -like" receptor [1]) | also measured
1 | CN1CCC[C@@H]1Cc1c[nH]c2ccc(C=CC(C)(C)O)cc12 [Example 1, 5-(3-Hydroxy-3-methyl-1-but-1-enyl)-3-(N-methyl-2(R)-pyrrolidinylmethyl)-1H-indole] | 400 nM | 7.7 | 
2 | CC(C)(O)CCc1ccc2[nH]cc(C[C@H]3CCCN3CC3CC3)c2c1 [Example 25, 3-(N-Cyclopropylmethyl-2(R)-pyrrolidinylmethyl)-5-(3-hydroxy-3-methyl-1-butyl)-1H-indole] | 480 nM | 6.4 | 
3 | CC(C)(O)CCc1ccc2[nH]cc(C[C@H]3CCCN3)c2c1 [Example 29, 5-(3-Hydroxy-3-methyl-1-butyl)-3-(2(R)-pyrrolidinylmethyl)-1H-indole] | 670 nM | 9.0 | signs of adverse acute toxicity [2]: no signs of adverse acute toxicity; signs of adverse acute toxicity [3]: no signs of adverse acute toxicity
4 | CC(C)(O)CCc1ccc2[nH]cc(C[C@H]3CCCN3CCc3ccncc3)c2c1 [Example 30, 5-(3-Hydroxy-3-methyl-1-butyl)-3-{N-[2-(4-pyridyl)ethyl]-2(R)-pyrrolidinylmethyl}-1H-indole] | 940 nM | 7.2 | 
5 | CC(=O)CCc1ccc2[nH]cc(C[C@H]3CCCN3)c2c1 [Example 37, 5-(3-Oxo-1-butyl)-3-(2(R)-pyrrolidinylmethyl)-1H-indole] | 130 nM | 1.3 | 
6 | CC(O)CCc1ccc2[nH]cc(C3CCN(C)CC3)c2c1 (centres unmarked) [Example 43, 5-(3-Hydroxy-1-butyl)-3-(N-methyl-4-piperidyl)-1H-indole] | 560 nM | 8.0 | 
7 | CC(C)(O)CCc1ccc2[nH]cc(CCN)c2c1 [Example 48, 3-(2-Aminoethyl)-5-(3-hydroxy-3-methyl-1-butyl)-1H-indole] | 300 nM | 3.2 | 
8 | CC(O)(CCc1ccc2[nH]cc(C[C@H]3CCCN3)c2c1)C(F)(F)F (stereo partly drawn) [Example 95, 5-(3-Hydroxy-3-trifluoromethyl-1-butyl)-3-(2(R)-pyrrolidinylmethyl)-1H-indole] | 320 nM | 4.0 | 
9 | CN(C)C(=O)CCN1CCC[C@@H]1Cc1c[nH]c2ccc(CCC3(O)CCOC3)cc12 (stereo partly drawn) [Example 101, 5-[2-(3-Hydroxy-3-tetrahydrofuranyl)ethyl]-3-{N-[2-(N,N-dimethylcarbamoyl)ethyl]-2(R)-pyrrolidinylmethyl}-1H-indole] | 700 nM | 10.0 | 
10 | OC1(CCc2ccc3[nH]cc(C4CCNC4)c3c2)CCCC1 (centres unmarked) [Example 109, 5-[2-(1-Hydroxycyclopentyl)ethyl]-3-(3-pyrrolidinyl)-1H-indole] | 750 nM | 8.5 | 
11 | CNS(=O)(=O)Cc1ccc2[nH]cc(CCN(C)C)c2c1 [Sumatriptan, sumatriptan] |  |  | contraction of the isolated dog saphenous vein strip ("5-HT1 -like" receptor [4]; P.P.A. Humphrey et al., Brit. J. Pharmacol., 1988, 94, 1123): contracting the isolated dog saphenous vein strip; carotid arterial blood flow (carotid vascular bed): decrease in carotid arterial blood flow; carotid vascular resistance (carotid vascular bed): selective increase in carotid vascular resistance
12 | CSc1ccc2c(c1)C(N1CCN(C)CC1)Cc1ccccc1S2 (centres unmarked) [methiothepin] |  |  | blockade of the contraction effect ("5-HT1 -like" receptor [4]; isolated dog saphenous vein strip, known 5-HT antagonist): blocked
